Measurements taken from the NIST ThermoML archive (doi:10.1016/j.fluid.2017.06.024).

Details: Liquid; for speed of sound: Frequency=3 MHz, Pulse-echo method; for mass density: Vibrating tube method

CC(C)OC(C)C [diisopropyl ether]
Details	mass density [kg/m3]	speed of sound [m/s]
293.15 K, 100 kPa	723.5	1019.7
293.15 K, 10000 kPa	734.6	–
293.15 K, 20000 kPa	744.5	1161.2
293.15 K, 30000 kPa	753.3	–
293.15 K, 40000 kPa	761.3	1274.5
293.15 K, 50000 kPa	768.6	–
293.15 K, 60000 kPa	775.4	1369.3
293.15 K, 70000 kPa	781.7	–
293.15 K, 80000 kPa	787.6	1454.2
293.15 K, 90000 kPa	793.2	–
293.15 K, 100000 kPa	798.5	1528.7
293.15 K, 110000 kPa	803.5	–
293.15 K, 120000 kPa	808.4	–
293.15 K, 130000 kPa	813	–
293.15 K, 140000 kPa	817.4	–
303.15 K, 100 kPa	712.9	974.32
303.15 K, 10000 kPa	725.2	–
303.15 K, 20000 kPa	735.9	1122.6
303.15 K, 30000 kPa	745.3	–
303.15 K, 40000 kPa	753.8	1240.4
303.15 K, 50000 kPa	761.5	–
303.15 K, 60000 kPa	768.5	1337.6
303.15 K, 70000 kPa	775.1	–
303.15 K, 80000 kPa	781.2	1423.4
303.15 K, 90000 kPa	787	–
303.15 K, 100000 kPa	792.4	1501.9
303.15 K, 110000 kPa	797.6	–
303.15 K, 120000 kPa	802.5	–
303.15 K, 130000 kPa	807.3	–
303.15 K, 140000 kPa	811.8	–
313.15 K, 100 kPa	702.2	930.24
313.15 K, 10000 kPa	715.5	–
313.15 K, 20000 kPa	726.9	1086.8
313.15 K, 30000 kPa	736.9	–
313.15 K, 40000 kPa	745.7	1207.9
313.15 K, 50000 kPa	753.8	–
313.15 K, 60000 kPa	761.1	1308.1
313.15 K, 70000 kPa	768.1	–
313.15 K, 80000 kPa	774.3	1396.7
313.15 K, 90000 kPa	780.3	–
313.15 K, 100000 kPa	786	1475
313.15 K, 110000 kPa	791.5	–
313.15 K, 120000 kPa	796.4	–
313.15 K, 130000 kPa	801.4	–
313.15 K, 140000 kPa	805.9	–
323.15 K, 100 kPa	691.5	887.83
323.15 K, 10000 kPa	706	–
323.15 K, 20000 kPa	718	1051.9
323.15 K, 30000 kPa	728.5	–
323.15 K, 40000 kPa	737.8	1177.1
323.15 K, 50000 kPa	746.2	–
323.15 K, 60000 kPa	753.9	1279
323.15 K, 70000 kPa	761	–
323.15 K, 80000 kPa	767.5	1368.7
323.15 K, 90000 kPa	773.7	–
323.15 K, 100000 kPa	779.5	1448.7
323.15 K, 110000 kPa	785	–
323.15 K, 120000 kPa	790.3	–
323.15 K, 130000 kPa	795.2	–
323.15 K, 140000 kPa	800	–
333.15 K, 100 kPa	680.6	847.29
333.15 K, 10000 kPa	696.3	–
333.15 K, 20000 kPa	709.3	1017.8
333.15 K, 30000 kPa	720.5	–
333.15 K, 40000 kPa	730.3	1146.8
333.15 K, 50000 kPa	739.1	–
333.15 K, 60000 kPa	747.1	1252.4
333.15 K, 70000 kPa	754.5	–
333.15 K, 80000 kPa	761.4	1343.2
333.15 K, 90000 kPa	767.8	–
333.15 K, 100000 kPa	773.8	1423.5
333.15 K, 110000 kPa	779.4	–
333.15 K, 120000 kPa	784.8	–
333.15 K, 130000 kPa	789.9	–
333.15 K, 140000 kPa	794.7	–
343.15 K, 10000 kPa	686	–
343.15 K, 20000 kPa	700	984.53
343.15 K, 30000 kPa	711.8	–
343.15 K, 40000 kPa	722.2	1117.8
343.15 K, 50000 kPa	731.4	–
343.15 K, 60000 kPa	739.7	1226.4
343.15 K, 70000 kPa	747.3	–
343.15 K, 80000 kPa	754.4	1318.7
343.15 K, 90000 kPa	761	–
343.15 K, 100000 kPa	767.2	1400.8
343.15 K, 110000 kPa	773.2	–
343.15 K, 120000 kPa	778.6	–
343.15 K, 130000 kPa	784	–
343.15 K, 140000 kPa	788.9	–
353.15 K, 10000 kPa	676.2	–
353.15 K, 20000 kPa	691.2	953.14
353.15 K, 30000 kPa	703.7	–
353.15 K, 40000 kPa	714.6	1090.7
353.15 K, 50000 kPa	724.2	–
353.15 K, 60000 kPa	733	1200.4
353.15 K, 70000 kPa	740.9	–
353.15 K, 80000 kPa	748.2	1294.6
353.15 K, 90000 kPa	755.1	–
353.15 K, 100000 kPa	761.4	1378.4
353.15 K, 110000 kPa	767.3	–
353.15 K, 120000 kPa	773	–
353.15 K, 130000 kPa	778.4	–
353.15 K, 140000 kPa	783.5	–
363.15 K, 10000 kPa	666.1	–
363.15 K, 20000 kPa	682.3	–
363.15 K, 30000 kPa	695.6	–
363.15 K, 40000 kPa	707	–
363.15 K, 50000 kPa	717.1	–
363.15 K, 60000 kPa	726.1	–
363.15 K, 70000 kPa	734.4	–
363.15 K, 80000 kPa	742	–
363.15 K, 90000 kPa	749	–
363.15 K, 100000 kPa	755.5	–
363.15 K, 110000 kPa	761.7	–
363.15 K, 120000 kPa	767.5	–
363.15 K, 130000 kPa	773	–
363.15 K, 140000 kPa	778.3	–
373.15 K, 10000 kPa	655.9	–
373.15 K, 20000 kPa	673.3	–
373.15 K, 30000 kPa	687.4	–
373.15 K, 40000 kPa	699.4	–
373.15 K, 50000 kPa	709.9	–
373.15 K, 60000 kPa	719.3	–
373.15 K, 70000 kPa	728	–
373.15 K, 80000 kPa	735.7	–
373.15 K, 90000 kPa	743.1	–
373.15 K, 100000 kPa	749.8	–
373.15 K, 110000 kPa	756.2	–
373.15 K, 120000 kPa	762.2	–
373.15 K, 130000 kPa	767.8	–
373.15 K, 140000 kPa	773.1	–
383.15 K, 10000 kPa	645.3	–
383.15 K, 20000 kPa	664	–
383.15 K, 30000 kPa	679	–
383.15 K, 40000 kPa	691.8	–
383.15 K, 50000 kPa	702.8	–
383.15 K, 60000 kPa	712.5	–
383.15 K, 70000 kPa	721.4	–
383.15 K, 80000 kPa	729.5	–
383.15 K, 90000 kPa	737	–
383.15 K, 100000 kPa	743.9	–
383.15 K, 110000 kPa	750.4	–
383.15 K, 120000 kPa	756.6	–
383.15 K, 130000 kPa	762.4	–
383.15 K, 140000 kPa	767.9	–
393.15 K, 10000 kPa	634.8	–
393.15 K, 20000 kPa	654.9	–
393.15 K, 30000 kPa	670.7	–
393.15 K, 40000 kPa	684	–
393.15 K, 50000 kPa	695.4	–
393.15 K, 60000 kPa	705.6	–
393.15 K, 70000 kPa	714.8	–
393.15 K, 80000 kPa	722.9	–
393.15 K, 90000 kPa	730.8	–
393.15 K, 100000 kPa	738	–
393.15 K, 110000 kPa	744.6	–
393.15 K, 120000 kPa	750.9	–
393.15 K, 130000 kPa	756.8	–
393.15 K, 140000 kPa	762.3	–
